Measurements from the Kinase Knowledgebase extract (Sharma et al. 2016).

Target: PIK3CA (human) (UniProt P42336)
Test: Assessment of PIK3CA Kinase Activity

Sequence of PIK3CA (human) (P42336 whole entry, looked up): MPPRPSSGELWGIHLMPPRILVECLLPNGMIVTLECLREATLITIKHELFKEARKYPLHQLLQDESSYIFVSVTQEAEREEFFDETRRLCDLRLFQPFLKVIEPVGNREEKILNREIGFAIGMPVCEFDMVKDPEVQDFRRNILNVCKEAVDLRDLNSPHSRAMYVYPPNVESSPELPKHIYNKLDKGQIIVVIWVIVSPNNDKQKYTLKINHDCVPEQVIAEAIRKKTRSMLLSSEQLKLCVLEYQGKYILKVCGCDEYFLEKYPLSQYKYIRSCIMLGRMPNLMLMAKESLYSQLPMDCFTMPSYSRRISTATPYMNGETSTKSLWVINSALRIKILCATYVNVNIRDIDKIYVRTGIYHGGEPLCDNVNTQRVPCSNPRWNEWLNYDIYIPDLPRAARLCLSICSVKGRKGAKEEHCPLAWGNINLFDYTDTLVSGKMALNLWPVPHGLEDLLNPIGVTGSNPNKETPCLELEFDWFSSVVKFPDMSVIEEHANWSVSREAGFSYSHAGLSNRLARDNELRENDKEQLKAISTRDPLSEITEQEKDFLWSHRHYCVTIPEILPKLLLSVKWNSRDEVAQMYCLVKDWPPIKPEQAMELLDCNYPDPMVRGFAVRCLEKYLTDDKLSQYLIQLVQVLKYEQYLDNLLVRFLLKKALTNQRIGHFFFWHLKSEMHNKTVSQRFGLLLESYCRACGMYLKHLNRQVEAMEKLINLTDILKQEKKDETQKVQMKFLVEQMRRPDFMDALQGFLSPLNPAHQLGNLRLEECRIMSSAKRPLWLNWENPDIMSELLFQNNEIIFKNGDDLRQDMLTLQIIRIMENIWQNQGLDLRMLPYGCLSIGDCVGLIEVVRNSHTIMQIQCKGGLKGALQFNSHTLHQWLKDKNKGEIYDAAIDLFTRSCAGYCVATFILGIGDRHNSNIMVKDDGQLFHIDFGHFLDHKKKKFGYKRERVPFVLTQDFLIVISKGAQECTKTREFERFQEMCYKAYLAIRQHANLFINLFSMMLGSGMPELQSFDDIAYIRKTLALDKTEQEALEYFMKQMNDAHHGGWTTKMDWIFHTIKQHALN

Structure (SMILES)	IC50 [nM]
COc1cc(-c2ccc3ncc(NC(=O)NC4CCN(C(=O)C(F)(F)F)CC4)nc3n2)ccc1O	< 1000
CC(C)(C)NC(=O)Nc1cnc2ccc(-c3cc(Cl)c(O)c(Cl)c3)nc2n1	< 5000
COc1cc(-c2ccc3ncc(NC(=O)Nc4cccs4)nc3n2)ccc1O	< 1000
O=C(Nc1cnc2ccc(-c3cc(Cl)c(O)c(Cl)c3)nc2n1)NC1CCCC1	< 1000
CCNC(=O)Nc1ccc2ncc(-c3ccc(OC)c(O)c3)nc2n1	< 5000
CCNC(=O)Nc1ccc2ncc(Nc3ccccc3O)nc2n1	< 5000
CCNC(=S)Nc1ccc2ncc(Nc3ccc(OC)c(O)c3)nc2n1	< 1000
CCNC(=O)Nc1ccc2ncc(-c3ccc(OC(C)=O)c(OC)c3)nc2n1	< 5000
CCNC(=O)Nc1ccc2ncc(Nc3cccc(O)c3)nc2n1	< 5000
CCNC(=S)Nc1ccc2ncc(Nc3cc(OC)c(OC)c(OC)c3)nc2n1	< 1000
CCNC(=O)Nc1cnc2ccc(-c3cc(C)c(O)c(C)c3)nc2n1	< 5000
CCNC(=O)Nc1ccc2ncc(Nc3ccc(O)c(C(=O)OC)c3)nc2n1	< 1000
COc1cc(-c2ccc3ncc(NC(=O)NC4CCCC4)nc3n2)ccc1O	< 1000
CCNC(=O)Nc1ccc2ncc(Nc3cccc(OC(F)F)c3)nc2n1	< 5000
CCNC(=O)Nc1cnc2ccc(-c3ccc(O)c(Cl)c3)nc2n1	< 5000
COc1cc(-c2ccc3ncc(NC(=O)NCCCl)nc3n2)ccc1O	< 1000
CCNC(=O)Nc1cnc2ccc(-c3ccc(O)c(OC)c3)nc2n1	< 500
CNC(=S)Nc1cnc2ccc(-c3ccc(O)c(OC)c3)nc2n1	< 1000
COc1cc(-c2ccc3ncc(NC(=O)Nc4ccncc4)nc3n2)ccc1O	< 1000
COc1cc(Nc2cnc3ccc(NC(=S)NC4CCCC4)nc3n2)cc(OC)c1OC	< 1000
CNC(=O)Nc1cnc2ccc(-c3ccc(OC)c(OC)c3)nc2n1	< 5000
